The record followed here is patent US20250230171A1 (MOMA Therapeutics, Inc., priority 2023, published 2025).

Where two headings read alike, the source gives them in different places. A value given as a limit tells only on which side of the number the result lay.

The IC50 is the concentration that gives 50% inhibition.

In one assay the test system is DLD1 BRCA2 (−/−) cells. The experiment in a line: 7-day cell viability assay (CellTiter-Glo), DLD1 BRCA2 (−/−). In kind it is cell-based, human. As to conditions: n=2, read-out: Viability IC50 (uM) DLD1 BRCA2 null. How it is done:
(§1) Cell lines DLD1 WT and DLD1 BRCA2 (−/−) (Horizon Discovery Cat No. HD PAR-008 and HD-105-007) were plated in 384-well culture plates at seeding densities of 100cells/50 ul/well and 200 cells/50 uL/well respectively. The seeding densities are pre-determined from the growth curve kinetics performed to ensure log linear phase of cell growth for these 2 cell lines. These assay plates are then placed in the incubator at 37° C., 5% CO2, relative humidity >90% for a few hours before addition of test compounds. Compounds are dispensed using the Tecan HPD300 or Echo based on the plate map in the appropriate wells of the 384-well plates. The cells are treated with nine-point dose response with 3-fold serial dilutions of test compounds starting at 10 uM top concentration. After addition of the test compounds, the plates are incubated at 37° C., 5% CO2, relative humidity >90% for 7 days. CellTiter-Glo (Promega Cat. No. G7573), ATP detection reagent is prepared according to manufacturer's specifications. Cell assay plates are removed from incubator and bring to room temperature (RT) by letting them sit at bench top for at least 15 min. Using the MultiDrop liquid handler or a multichannel pipette, 35 μL/well of CTG is added and the plates are then placed shakes for 5 seconds, RT.
(ATP-based viability assays read luminescence as a measure of living cells.)

Another assay concerns DLD1 WT cells. The experiment in a line: 7-day cell viability assay (CellTiter-Glo), DLD1 parental (WT). The note with it: n=2. The format is cell-based, human. How it is done:
as §1

In assay [1] the target is biotinylated Avi-POLθ[2-894] (Homo sapiens (Human), UniProt O75417). The experiment in a line: POLθ ATPase assay (ADP-Glo). The note with it: n=2, read-out: Biochemical ATPase ADPGlo IC50.
Setting [2] is: Homo sapiens, DLD-1, 168 h, 7-day CellTiter-Glo.
Where [3] appears, read: Homo sapiens, DLD-1, 168 h, 7-day viability.

biotinylated Avi-POLθ[2-894], sequence (O75417 2-894): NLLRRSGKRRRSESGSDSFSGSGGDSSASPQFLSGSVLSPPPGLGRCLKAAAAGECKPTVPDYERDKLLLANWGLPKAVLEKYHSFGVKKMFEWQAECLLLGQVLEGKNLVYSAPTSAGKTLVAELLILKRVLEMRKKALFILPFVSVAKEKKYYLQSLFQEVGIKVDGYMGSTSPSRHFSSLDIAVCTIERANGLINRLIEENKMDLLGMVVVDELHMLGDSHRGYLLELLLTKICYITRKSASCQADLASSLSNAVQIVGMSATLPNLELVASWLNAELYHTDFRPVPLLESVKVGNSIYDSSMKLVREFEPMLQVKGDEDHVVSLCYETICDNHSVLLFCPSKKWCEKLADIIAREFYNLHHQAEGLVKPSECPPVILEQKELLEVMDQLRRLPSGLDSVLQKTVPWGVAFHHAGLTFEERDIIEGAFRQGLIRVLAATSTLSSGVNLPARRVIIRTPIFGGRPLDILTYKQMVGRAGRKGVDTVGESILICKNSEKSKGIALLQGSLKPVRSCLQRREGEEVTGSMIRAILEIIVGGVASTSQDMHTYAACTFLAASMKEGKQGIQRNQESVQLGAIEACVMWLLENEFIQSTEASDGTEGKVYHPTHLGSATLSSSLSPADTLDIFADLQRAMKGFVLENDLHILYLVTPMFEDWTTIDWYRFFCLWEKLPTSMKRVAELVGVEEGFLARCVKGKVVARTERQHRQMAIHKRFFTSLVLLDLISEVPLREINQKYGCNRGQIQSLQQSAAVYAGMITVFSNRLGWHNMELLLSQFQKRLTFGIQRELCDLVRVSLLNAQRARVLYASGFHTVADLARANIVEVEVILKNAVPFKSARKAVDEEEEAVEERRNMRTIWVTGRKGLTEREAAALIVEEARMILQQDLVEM

As to `COc1cnc(Cl)cc1-c1cc(C)ncc1C(=O)Nc1nc2c(s1)CN(C(=O)c1nc(C(F)F)ccc1F)C2`, the IC50 in the assay on DLD1 BRCA2 (−/−) cells (setting [2]) was 0.001 to 0.1 µM; with DLD1 WT cells (setting [2]), at least 10 µM.

Take `COc1cnc(Cl)cc1-c1cc(C)ncc1C(=O)Nc1nc2c(s1)CN(C(=O)c1nc(C(F)(F)F)ccc1OC)C2` [Example 937, 2′-chloro-5′-methoxy-N-(5-(3-methoxy-6-(trifluoromethyl)picolinoyl)-5,6-dihydro-4H-pyrrolo[3,4-d]thiazol-2-yl)-6-methyl-[4,4′-bipyridine]-3-carboxamide]: the values for the IC50 in the assay with DLD1 BRCA2 (−/−) cells (setting [2]) and in the assay on DLD1 WT cells (setting [2]) were 0.001 to 0.1 µM and at least 10 µM, respectively.

As to `COc1cnc(Cl)cc1-c1cc(C)ncc1C(=O)Nc1nc2c(s1)CN(C(=O)c1cnc(OC(F)F)cc1C)C2`, the figures for the IC50 with DLD1 BRCA2 (−/−) cells (setting [2]) and with DLD1 WT cells (setting [2]) were 0.001 to 0.1 µM and at least 10 µM, respectively. The like results for `COc1cc(C(F)(F)F)ncc1C(=O)N1Cc2nc(NC(=O)c3cnc(C)cc3-c3cc(Cl)ncc3OC)sc2C1` [Example 974, 2′-chloro-5′-methoxy-N-(5-(4-methoxy-6-(trifluoromethyl)nicotinoyl)-5,6-dihydro-4H-pyrrolo[3,4-d]thiazol-2-yl)-6-methyl-[4,4′-bipyridine]-3-carboxamide] were, in that order, 0.001 to 0.1 µM and at least 10 µM.

Consider `COc1nnc(Cl)cc1-c1cc(C)ncc1C(=O)Nc1nc2c(s1)CN(C(=O)c1ccc(C#N)c(C)n1)C2` [Example 981, 4-(6-chloro-3-methoxypyridazin-4-yl)-N-(5-(5-cyano-6-methylpicolinoyl)-5,6-dihydro-4H-pyrrolo[3,4-d]thiazol-2-yl)-6-methylnicotinamide], for which the IC50 in the assay on DLD1 BRCA2 (−/−) cells (setting [2]) is 0.001 to 0.1 µM; with DLD1 WT cells (setting [2]), at least 10 µM. The like results for `COc1cnc(Cl)cc1-c1cc(C)ncc1C(=O)Nc1nc2c(s1)CN(C(=O)c1ccc(OC(F)(F)F)nc1C)C2` [Example 1018, 2′-chloro-5′-methoxy-6-methyl-N-(5-(2-methyl-6-(trifluoromethoxy)nicotinoyl)-5,6-dihydro-4H-pyrrolo[3,4-d]thiazol-2-yl)-[4,4′-bipyridine]-3-carboxamide] were, in that order, 0.001 to 0.1 µM and at least 10 µM.

Consider `COc1cnc(Cl)cc1-c1cc(C)ncc1C(=O)Nc1nc2c(s1)CN(C(=O)c1cc(Cl)c(C(F)F)cn1)C2`, for which the IC50 lay within 0.001 to 0.1 µM in the assay on DLD1 BRCA2 (−/−) cells (setting [2]) and 5 to 10 µM in the assay on DLD1 WT cells (setting [2]).

Consider `COc1cnc(Cl)cc1-c1cc(C)ncc1C(=O)Nc1nc2c(s1)CN(C(=O)c1nc(OC)c(Cl)nc1C)C2`, for which the results for the IC50 with DLD1 BRCA2 (−/−) cells (setting [2]) and in the assay on DLD1 WT cells (setting [2]) were 0.001 to 0.1 µM and at least 10 µM, respectively. The like results for `COc1cnc(Cl)cc1-c1cc(C)ncc1C(=O)Nc1nc2c(s1)CN(C(=O)c1ncc(Cl)nc1C)C2` were, in that order, 0.5 to 2 µM and at least 10 µM. “2′-chloro-N-(5-(5-chloropyrimidine-2-carbonyl)-5,6-dihydro-4H-pyrrolo[3,4-d]thiazol-2-yl)-5′-(difluoromethoxy)-6-methyl-[4,4′-bipyridine]-3-carboxamide [Example 648]”: the IC50 was 0.001 to 0.1 µM in the assay on DLD1 BRCA2 (−/−) cells (7-day CellTiter-Glo) and at least 10 µM in the assay on DLD1 WT cells (7-day CellTiter-Glo). Turning to `COc1cnc(Cl)cc1-c1cc(C)ncc1C(=O)Nc1nc2c(s1)CN(C(=O)c1cnc(OC(F)F)c(C)n1)C2` [Example 990, 2′-chloro-N-(5-(5-(difluoromethoxy)-6-methylpyrazine-2-carbonyl)-5,6-dihydro-4H-pyrrolo[3,4-d]thiazol-2-yl)-5′-methoxy-6-methyl-[4,4′-bipyridine]-3-carboxamide], the IC50 with DLD1 BRCA2 (−/−) cells (setting [2]) is 0.001 to 0.1 µM; in the assay on DLD1 WT cells (setting [2]) it was at least 10 µM.

`COc1cnc(Cl)cc1-c1cc(C)ncc1C(=O)Nc1nc2c(s1)CN(C(=O)c1ncc(Cl)c(C(F)F)n1)C2` (racemic): the results for the IC50 with DLD1 BRCA2 (−/−) cells (setting [2]) and with DLD1 WT cells (setting [2]) were 0.25 to 0.5 µM and at least 10 µM, respectively. The like results for `COc1cnc(Cl)cc1-c1cc(C)ncc1C(=O)Nc1nc2c(s1)CN(C(C)c1ccc(C(F)F)cc1F)C2` (centres unmarked) [Example 975, 2′-chloro-N-(5-(1-(4-(difluoromethyl)-2-fluorophenyl)ethyl)-5,6-dihydro-4H-pyrrolo[3,4-d]thiazol-2-yl)-5′-methoxy-6-methyl-[4,4′-bipyridine]-3-carboxamide] were, in that order, 0.001 to 0.1 µM and at least 10 µM. The like results for `CCOc1nc(C(F)(F)F)ccc1C(=O)N1Cc2nc(NC(=O)c3cnc(C)cc3-c3cc(Cl)ncc3OC)sc2C1` [Example 969, 2′-chloro-N-(5-(2-ethoxy-6-(trifluoromethyl)nicotinoyl)-5,6-dihydro-4H-pyrrolo[3,4-d]thiazol-2-yl)-5′-methoxy-6-methyl-[4,4′-bipyridine]-3-carboxamide] were, in that order, 0.001 to 0.1 µM and at least 10 µM. The corresponding values for `COc1cnc(Cl)cc1-c1cc(C)ncc1C(=O)Nc1nc2c(s1)CN(C(=O)c1cnc(C(F)(F)F)c(C)c1C)C2` are 0.001 to 0.1 µM and at least 10 µM. Consider “2′-Chloro-5′-methoxy-6-methyl-N-(5-(6-methyl-5-(trifluoromethoxy)picolinoyl)-5,6-dihydro-4H-pyrrolo[3,4-d]thiazol-2-yl)-[4,4′-bipyridine]-3-carboxamide [Example 555]”, for which the IC50 in the assay with DLD1 BRCA2 (−/−) cells (7-day CellTiter-Glo) is 0.001 to 0.1 µM; with DLD1 WT cells (7-day CellTiter-Glo), at least 10 µM.

In the case of `COc1cnc(Cl)cc1-c1cc(C)ncc1C(=O)Nc1nc2c(s1)CN(C(=O)c1ccc(C)c(Cl)n1)C2`, the IC50 in the assay with DLD1 BRCA2 (−/−) cells (setting [2]) was 0.001 to 0.1 µM; with DLD1 WT cells (setting [2]) it was at least 10 µM. Take “2′-Chloro-N-(5-(3,5-dimethoxypyrazine-2-carbonyl)-5,6-dihydro-4H-pyrrolo[3,4-d]thiazol-2-yl)-5′-methoxy-6-methyl-[4,4′-bipyridine]-3-carboxamide [Example 413]”: the IC50 in the assay on DLD1 BRCA2 (−/−) cells (7-day CellTiter-Glo) is 0.001 to 0.1 µM; in the assay on DLD1 WT cells (7-day CellTiter-Glo), at least 10 µM.

As for `COc1cnc(Cl)cc1-c1cc(C)ncc1C(=O)Nc1nc2c(s1)CN(C(=O)c1cc(C)c(C(F)(F)F)nc1OC)C2` [Example 989, 2′-chloro-5′-methoxy-N-(5-(2-methoxy-5-methyl-6-(trifluoromethyl)nicotinoyl)-5,6-dihydro-4H-pyrrolo[3,4-d]thiazol-2-yl)-6-methyl-[4,4′-bipyridine]-3-carboxamide], the IC50 in the assay on DLD1 BRCA2 (−/−) cells (setting [2]) was 0.001 to 0.1 µM; in the assay with DLD1 WT cells (setting [2]), at least 10 µM. The like results for `COc1cnc(Cl)cc1-c1cc(C)ncc1C(=O)Nc1nc2c(s1)CN(C(=O)[C@H]1CC[C@@H](C(F)F)CC1)C2` [Example 909, 2′-chloro-N-(5-((1s,4s)-4-(difluoromethyl)cyclohexane-1-carbonyl)-5,6-dihydro-4H-pyrrolo[3,4-d]thiazol-2-yl)-5′-methoxy-6-methyl-[4,4′-bipyridine]-3-carboxamide] were, in that order, 0.001 to 0.1 µM and at least 10 µM.

For “2′-chloro-5′-methoxy-6-methyl-N-(5-(thiazole-2-carbonyl)-5,6-dihydro-4H-pyrrolo[3,4-d]thiazol-2-yl)-[4,4′-bipyridine]-3-carboxamide [Example 608]”, the IC50 in the assay with DLD1 WT cells (7-day CellTiter-Glo) was at least 10 µM. Turning to “2′-Chloro-5′-methoxy-6-methyl-N-(5-(3-methylpyrazine-2-carbonyl)-5,6-dihydro-4H-pyrrolo[3,4-d]thiazol-2-yl)-[4,4′-bipyridine]-3-carboxamide [Example 412]”, the IC50 with DLD1 WT cells (7-day viability) was at least 10 µM; in assay [1] it was 1 to 15 nM. `CCc1nn(C)c(C(=O)N2Cc3nc(NC(=O)c4cnc(C)cc4-c4cc(Cl)ncc4OC)sc3C2)c1Cl` [Example 56, 2′-chloro-N-(5-(4-chloro-3-ethyl-1-methyl-1H-pyrazole-5-carbonyl)-5,6-dihydro-4H-pyrrolo[3,4-d]thiazol-2-yl)-5′-methoxy-6-methyl-[4,4′-bipyridine]-3-carboxamide]: the IC50 in the assay with DLD1 BRCA2 (−/−) cells (setting [3]) is 0.001 to 0.1 µM; in assay [1], 1 to 15 nM. Regarding “N-(5-(benzo[d]oxazole-2-carbonyl)-5,6-dihydro-4H-pyrrolo[3,4-d]thiazol-2-yl)-2′-chloro-5′-methoxy-6-methyl-[4,4′-bipyridine]-3-carboxamide [Example 615]”, the IC50 with DLD1 WT cells (7-day CellTiter-Glo) was at least 10 µM. In the case of `CCc1c(Cl)c(C(=O)N2Cc3nc(NC(=O)c4cnc(C)cc4-c4cc(Cl)ncc4OC)sc3C2)nn1C` [Example 70, 2′-chloro-N-(5-(4-chloro-5-ethyl-1-methyl-1H-pyrazole-3-carbonyl)-5,6-dihydro-4H-pyrrolo[3,4-d]thiazol-2-yl)-5′-methoxy-6-methyl-[4,4′-bipyridine]-3-carboxamide], the IC50 was in the range of 0.001 to 0.1 µM with DLD1 BRCA2 (−/−) cells (setting [3]) and 1 to 15 nM in assay [1]. With “2′-Chloro-N-(5-(6-chloro-4-methylpicolinoyl)-5,6-dihydro-4H-pyrrolo[3,4-d]thiazol-2-yl)-5′-methoxy-6-methyl-[4,4′-bipyridine]-3-carboxamide [Example 390]”, the IC50 in the assay with DLD1 BRCA2 (−/−) cells (7-day CellTiter-Glo) was 0.001 to 0.1 µM; in assay [1] (POLθ ATPase, ADP-Glo), 1 to 15 nM.
